EC50 data for 24 compounds are collected here from patent publication US12629374B2, “Antimalarial agents” (Merck Sharp & Dohme LLC, priority 2020, dated 2026).

For the first test, the system named is ring stage parasites. Nature of the test: Parasite growth potency assay, 72 hours, LDH readout. The following applies: 72 h, parasite growth measured by LDH assay after 72 hours at 37° C.; 0.7% rings, 2% haematocrit; read-out: EC50. The class given is cell-based. Put shortly:
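Parasite growth was quantified by LDH assay after a −80 °C freeze-thaw. Before that, compound was incubated for 72 h at 37 °C under humidified gas with ring-stage cultures adjusted to 0.7% parasitemia and 2% haematocrit in serum- and albumax-supplemented RPMI-Hepes.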
As for `CCC1(CC)CC(=O)N([C@H](CCOC)c2cccc(C(=O)N[C@@H]3c4ccccc4C4(CC4)[C@H]3O)c2)C(=N)N1` [Example 191A, [4,4-diethyl-1-[(1R)-1-[3-[(2′-hydroxyspiro[cyclopropane-1,3′-indane]-1′-yl)carbamoyl]phenyl]-3-methoxy-propyl]-6-oxo-hexahydropyrimidin-2-ylidene]ammonium; 2,2,2-trifluoroacetate], the EC50 was found to be 0.7 nM.

Regarding `CCC1(CC)CC(=O)N([C@H](CCOC)c2cccc(C(=O)N[C@H]3c4ccccc4C4(CC4)[C@@H]3O)c2)C(=N)N1` [Example 191B, [4,4-diethyl-1-[(1R)-1-[3-[(2′-hydroxyspiro[cyclopropane-1,3′-indane]-1′-yl)carbamoyl]phenyl]-3-methoxy-propyl]-6-oxo-hexahydropyrimidin-2-ylidene]ammonium; 2,2,2-trifluoroacetate], the 50% effective concentration (EC50) was found to be 90.2 nM.

Regarding `CCC1(CC)CC(=O)N([C@H](C)c2cccc(C(=O)N[C@@H]3c4ccccc4C[C@@]3(C)O)c2)C(=N)N1` [Example 192A, 3-[(1R)-1-(4,4-diethyl-2-imino-6-oxo-hexahydropyrimidin-1-yl)ethyl]-N-[(1R,2R)-2-hydroxy-2-methyl-indan-1-yl]benzamide], the EC50 came to 2.1 nM.

Turning to `CCC1(CC)CC(=O)N([C@H](C)c2cccc(C(=O)N[C@@H]3c4ccccc4OC(C)(C)[C@H]3O)c2)C(=N)N1` [Example 193, [4,4-diethyl-1-[(1R)-1-[3-[[(3S,4R)-3-hydroxy-2,2-dimethyl-chroman-4-yl]carbamoyl]phenyl]ethyl]-6-oxo-hexahydropyrimidin-2-ylidene]ammonium; 2,2,2-trifluoroacetate], the concentration for a half-maximal effect (EC50) amounted to 0.6 nM.

For `CC1(C)CC(=O)N(Cc2cccc(C(=O)N[C@@H]3c4ccccc4OC(C)(C)[C@H]3O)c2)C(=N)N1` [Example 194, [1-[[3-[[(3S,4R)-3-hydroxy-2,2-dimethyl-chroman-4-yl]carbamoyl]phenyl]methyl]-4,4-dimethyl-6-oxo-hexahydropyrimidin-2-ylidene]ammonium; 2,2,2-trifluoroacetate], the EC50 was determined as 11.6 nM.

On to `CCC1(C)CC(=O)N([C@H](CCOC)c2cccc(C(=O)N[C@@H]3c4ccccc4C[C@H]3O)c2)C(=N)N1` (stereo partly drawn) [Example 195A, [4-ethyl-1-[(1R)-1-[3-[[(1R,2R)-2-hydroxyindan-1-yl]carbamoyl]phenyl]-3-methoxy-propyl]-4-methyl-6-oxo-hexahydropyrimidin-2-ylidene]ammonium; 2,2,2-trifluoroacetate], for which the half-maximal effective concentration (EC50) came out at 3.3 nM.

Regarding `CC1(C)CC(=O)N(Cc2cccc(C(=O)N[C@H]3CC(C)(C)Oc4ccccc43)c2)C(=N)N1` [Example 198, [1-[[3-[[(4S)-2,2-dimethylchroman-4-yl]carbamoyl]phenyl]methyl]-4,4-dimethyl-6-oxo-hexahydropyrimidin-2-ylidene]ammonium; 2,2,2-trifluoroacetate], the concentration giving a half-maximal response (EC50) turned out to be 17 nM.

As to `COCC[C@H](c1cccc(C(=O)N[C@@H]2c3cc(F)ccc3C[C@H]2O)c1)N1C(=N)NC(C)(C)CC1=O` [Example 200, [1-[(1R)-1-[3-[(6-fluoro-2-hydroxy-indan-1-yl)carbamoyl]phenyl]-3-methoxy-propyl]-4,4-dimethyl-6-oxo-hexahydropyrimidin-2-ylidene]ammonium; 2,2,2-trifluoroacetate], the concentration giving a half-maximal response (EC50) was 7.1 nM.

On to `CCC1(CC)CC(=O)N([C@H](CCOCCOCCOCCN=[N+]=[N-])c2cccc(C(=O)N[C@H]3CC(C)(C)Oc4ccccc43)c2)C(=N)N1` [Example 201, [1-[(1R)-3-[2-[2-(2-azidoethoxy)ethoxy]ethoxy]-1-[3-[[(4S)-2,2-dimethylchroman-4-yl]carbamoyl]phenyl]propyl]-4,4-diethyl-6-oxo-hexahydropyrimidin-2-ylidene]ammonium; 2,2,2-trifluoroacetate], for which the EC50 turned out to be 1.2 nM.

On to `CCC1(CC)CC(=O)N([C@H](CCOC)c2cccc(C(=O)N[C@@H]3c4ccccc4C[C@@H]3O)c2)C(=N)N1` [Example 202, [4,4-diethyl-1-[(1R)-1-[3-[[(1R,2S)-2-hydroxyindan-1-yl]carbamoyl]phenyl]-3-methoxy-propyl]-6-oxo-hexahydropyrimidin-2-ylidene]ammonium; 2,2,2-trifluoroacetate], for which the concentration for a half-maximal effect (EC50) is 5.3 nM.

For `CCC1(CC)CC(=O)N([C@H](CCOC)c2cccc(C(=O)N[C@@H]3c4ccccc4OC(C)(C)C3(C)O)c2)C(=N)N1` (stereo partly drawn) [Example 203, 3-[(1R)-1-(4,4-diethyl-2-imino-6-oxo-hexahydropyrimidin-1-yl)-3-methoxy-propyl]-N-(3-hydroxy-2,2,3-trimethyl-chroman-4-yl)benzamide], the EC50 was 0.3 nM.

As to `CCC1(CC)CC(=O)N([C@H](C)c2cccc(C(=O)N[C@@H]3c4ccccc4OC[C@@]3(C)O)c2)C(=N)N1` [Example 205A, [4,4-diethyl-1-[(1R)-1-[3-[[(3S,4R)-3-hydroxy-3-methyl-chroman-4-yl]carbamoyl]phenyl]ethyl]-6-oxo-hexahydropyrimidin-2-ylidene]ammonium; 2,2,2-trifluoroacetate], the EC50 is 1.1 nM.

Regarding `CC[C@H](c1cccc(C(=O)N[C@@H]2c3ccccc3OC[C@@]2(C)O)c1)N1C(=N)NC(CC)(CC)CC1=O` [Example 206A, 3-[1-(4,4-diethyl-2-imino-6-oxo-hexahydropyrimidin-1-yl)propyl]-N-[(3S,4R)-3-hydroxy-3-methyl-chroman-4-yl]benzamide], the EC50 amounted to 1 nM.

`CC[C@H](c1cccc(C(=O)N[C@@H]2c3ccccc3OC(C)(C)[C@H]2O)c1)N1C(=N)NC(CC)(CC)CC1=O` [Example 207A, [4,4-diethyl-1-[1-[3-[[(3S,4R)-3-hydroxy-2,2-dimethyl-chroman-4-yl]carbamoyl]phenyl]propyl]-6-oxo-hexahydropyrimidin-2-ylidene]ammonium; 2,2,2-trifluoroacetate]: the EC50 was determined as 0.3 nM.

The same test, now with this note: parasite growth measured by LDH assay after 72 hours at 37° C.; 0.7% rings, 2% haematocrit; read-out: EC50.
As to `CCC1(CC)CC(=O)N([C@H](CCOC)c2cccc(C(=O)NC3c4ccccc4C(F)(F)C3O)c2)C(=N)N1` (stereo partly drawn) [Example 189B, [1-[(1R)-1-[3-[(3,3-difluoro-2-hydroxy-indan-1-yl)carbamoyl]phenyl]-3-methoxy-propyl]-4,4-diethyl-6-oxo-hexahydropyrimidin-2-ylidene]ammonium; chloride], the EC50 was determined as 292 nM.

Take `CCC1(CC)CC(=O)N([C@H](C)c2cccc(C(=O)N[C@@H]3c4ccccc4C[C@]3(C)O)c2)C(=N)N1` [Example 192B, 3-[(1R)-1-(4,4-diethyl-2-imino-6-oxo-hexahydropyrimidin-1-yl)ethyl]-N-[(1R,2S)-2-hydroxy-2-methyl-indan-1-yl]benzamide]: the 50% effective concentration (EC50) was 2.7 nM.

As for `CCC1(C)CC(=O)N([C@H](CCOC)c2cccc(C(=O)N[C@@H]3c4ccccc4CC3(C)O)c2)C(=N)N1` (stereo partly drawn) [Example 196A, 3-[(1R)-1-(4-ethyl-2-imino-4-methyl-6-oxo-hexahydropyrimidin-1-yl)-3-methoxy-propyl]-N-[(1R,2S)-2-hydroxy-2-methyl-indan-1-yl]benzamide], the EC50 was 6.5 nM.

In the case of `CCC1(C)CC(=O)N([C@H](CCOC)c2cccc(C(=O)N[C@@H]3c4ccccc4CC3(C)O)c2)C(=N)N1` (stereo partly drawn) [Example 196B, 3-[(1R)-1-(4-ethyl-2-imino-4-methyl-6-oxo-hexahydropyrimidin-1-yl)-3-methoxy-propyl]-N-[(1R,2S)-2-hydroxy-2-methyl-indan-1-yl]benzamide], the half-maximal effective concentration (EC50) is 3.1 nM.

On to `CCC1(C)CC(=O)N([C@H](CCOC)c2cccc(C(=O)N[C@@H]3c4ccccc4C[C@@]3(C)O)c2)C(=N)N1` (stereo partly drawn) [Example 196C, 3-[(1R)-1-(4-ethyl-2-imino-4-methyl-6-oxo-hexahydropyrimidin-1-yl)-3-methoxy-propyl]-N-[(1R,2R)-2-hydroxy-2-methyl-indan-1-yl]benzamide], for which the EC50 came to 7.4 nM.

On to `CCC1(C)CC(=O)N([C@H](CCOC)c2cccc(C(=O)N[C@@H]3c4ccccc4CC3(C)O)c2)C(=N)N1` (stereo partly drawn) [Example 196D, 3-[(1R)-1-(4-ethyl-2-imino-4-methyl-6-oxo-hexahydropyrimidin-l-yl)-3-methoxy-propyl]-N-[(1R,2R)-2-hydroxy-2-methyl-indan-1-yl]benzamide], for which the EC50 amounted to 6.8 nM.

The test is the same for the next values; noted with them: parasite growth measured by LDH assay after 72 hours at 37° C.; 0.7% rings, 2% haematocrit; trifluoroacetate; read-out: EC50.
As for `CCC1(CC)CC(=O)N([C@H](CCOC)c2cccc(C(=O)NC3c4ccccc4C(F)(F)C3O)c2)C(=N)N1` (stereo partly drawn) [Example 189A, [1-[(1R)-1-[3-[(3,3-difluoro-2-hydroxy-indan-1-yl)carbamoyl]phenyl]-3-methoxy-propyl]-4,4-diethyl-6-oxo-hexahydropyrimidin-2-ylidene]ammonium; 2,2,2-trifluoroacetate], the EC50 was found to be 0.8 nM.

In the case of `CCC1(C)CC(=O)N([C@H](CCOC)c2cccc(C(=O)N[C@@H]3c4ccccc4C[C@H]3O)c2)C(=N)N1` (stereo partly drawn) [Example 195B, [4-ethyl-1-[(1R)-1-[3-[[(1R,2R)-2-hydroxyindan-1-yl]carbamoyl]phenyl]-3-methoxy-propyl]-4-methyl-6-oxo-hexahydropyrimidin-2-ylidene]ammonium; 2,2,2-trifluoroacetate], the concentration for a half-maximal effect (EC50) was determined as 2.7 nM.

With `CCC1(CC)CC(=O)N([C@H](C)c2cccc(C(=O)N[C@@H]3c4ccccc4OC[C@]3(C)O)c2)C(=N)N1` [Example 205B, [4,4-diethyl-1-[(1R)-1-[3-[[(3R,4R)-3-hydroxy-3-methyl-chroman-4-yl]carbamoyl]phenyl]ethyl]-6-oxo-hexahydropyrimidin-2-ylidene]ammonium; 2,2,2-trifluoroacetate], the EC50 is 1.9 nM.

As to `CC[C@H](c1cccc(C(=O)N[C@@H]2c3ccccc3OC[C@]2(C)O)c1)N1C(=N)NC(CC)(CC)CC1=O` [Example 206B, [4,4-diethyl-1-[1-[3-[[(3R,4R)-3-hydroxy-3-methyl-chroman-4-yl]carbamoyl]phenyl]propyl]-6-oxo-hexahydropyrimidin-2-ylidene]ammonium; 2,2,2-trifluoroacetate], the half-maximal effective concentration (EC50) is 0.7 nM.

As usually defined, the EC50 is the concentration that produces a half-maximal response.
